Patent US10765741B2, “Methods for treating VEGF-expressing cancer using preformed nanoparticle complexes comprising albumin-bound paclitaxel and bevacizumab” (Mayo Foundation for Medical Education and Research, priority 2011, dated 2020)

How the values were obtained:
[1] = Bevacizumab incubated with free paclitaxel, Western blot with anti-paclitaxel antibody; type: binding; details: 4 mg bevacizumab, paclitaxel 0.1-2 mg, 30 minutes room temperature
Experimental: The following was performed to determine if bevacizumab binds free paclitaxel. 4 mg of bevacizumab was incubated with paclitaxel (0.1, 0.5, 1, or 2 mg) for 30 minutes at room temperature.

[2] = Complex formation of labeled antibodies with labeled Abraxane nanoparticles, flow cytometry; type: binding; details: fluorescently labeled antibody and nanoparticles
Experimental: Three therapeutic monoclonal antibodies (bevacizumab, trastuzamab, and rituxan) were fluorescently labeled and incubated with fluorescently labeled Abraxane® nanoparticles. The particles were spun down, washed, and visualized by flow cytometry.

Substance | binding of free paclitaxel [1] | complex formation with Abraxane nanoparticles [2]
bevacizumab: Humanized monoclonal antibody that binds to vascular endothelial growth factor A | did not bind | spontaneously formed complexes
rituxan: Therapeutic monoclonal antibody |  | spontaneously formed complexes
